Laboratory results published in US20100311714A1, “1H-IMIDAZO[4,5-c]QUINOLINONE COMPOUNDS” (priority 2009, published 2010).

molecular target: T1, PI3K delta (Homo sapiens, UniProt O00329); experiment: PI3K delta kinase assay (Kinase-Glo luminescence); type: biochemical; settings: read-out: EPK_PI3Kdelta/IC50
T1 construct: for the full-length p110-d subunit are generated and fused by overlapping PCR; His tag (C); made in house; host or cells: baculovirus BV1060; Tn5 (Trichoplusia ni) or TiniPro insect cells
T1 sequence (O00329 with tags, fused parts or gaps limits assumed): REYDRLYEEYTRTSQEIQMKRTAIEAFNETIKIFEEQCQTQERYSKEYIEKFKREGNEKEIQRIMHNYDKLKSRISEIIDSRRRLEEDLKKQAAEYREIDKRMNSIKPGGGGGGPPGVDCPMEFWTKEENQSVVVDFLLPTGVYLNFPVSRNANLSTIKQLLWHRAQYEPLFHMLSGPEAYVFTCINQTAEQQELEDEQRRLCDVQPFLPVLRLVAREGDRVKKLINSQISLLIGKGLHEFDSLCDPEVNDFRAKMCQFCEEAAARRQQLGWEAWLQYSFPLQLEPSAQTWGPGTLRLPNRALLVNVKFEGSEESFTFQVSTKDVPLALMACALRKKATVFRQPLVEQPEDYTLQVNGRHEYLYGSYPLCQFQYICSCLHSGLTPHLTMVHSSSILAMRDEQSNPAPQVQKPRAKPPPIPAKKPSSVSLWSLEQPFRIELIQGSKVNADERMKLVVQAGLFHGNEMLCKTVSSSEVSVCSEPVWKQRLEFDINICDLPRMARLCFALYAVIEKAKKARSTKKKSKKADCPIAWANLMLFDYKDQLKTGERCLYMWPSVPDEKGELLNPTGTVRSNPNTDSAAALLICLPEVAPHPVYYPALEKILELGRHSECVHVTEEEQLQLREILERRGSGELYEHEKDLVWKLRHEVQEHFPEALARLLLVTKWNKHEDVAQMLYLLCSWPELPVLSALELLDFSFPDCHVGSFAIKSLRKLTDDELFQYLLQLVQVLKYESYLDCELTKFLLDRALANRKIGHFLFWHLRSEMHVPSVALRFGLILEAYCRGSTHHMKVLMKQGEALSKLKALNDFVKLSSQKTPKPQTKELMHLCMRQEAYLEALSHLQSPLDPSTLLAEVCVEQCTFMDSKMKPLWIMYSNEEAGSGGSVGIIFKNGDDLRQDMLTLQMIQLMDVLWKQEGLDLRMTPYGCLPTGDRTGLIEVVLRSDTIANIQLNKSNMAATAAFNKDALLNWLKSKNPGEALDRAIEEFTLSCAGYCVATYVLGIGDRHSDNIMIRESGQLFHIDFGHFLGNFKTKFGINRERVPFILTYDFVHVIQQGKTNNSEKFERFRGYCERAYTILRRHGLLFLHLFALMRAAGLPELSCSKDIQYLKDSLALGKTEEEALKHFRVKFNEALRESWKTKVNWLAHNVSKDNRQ
How it was run: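 IC50s derive from 8-point inhibition curves fitted to a 4-parameter logistic model. Reaction: 10 nM purified p110δ/p85 iSH2 fusion, 1 μM ATP, 10 μg/mL PI substrate, pH 7.5 Tris buffer with MgCl2, NaCl, CHAPS and DTT, run 60 min at room temperature; remaining ATP read by Kinase-Glo luminescence.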

Row | IC50 [nM] | SMILES
1 | < 3 | Cc1nc(N2CCC(O)C2)ccc1-n1c(=O)n(C)c2cnc3ccc(-c4cnc(N)c(C(F)(F)F)c4)cc3c21 (stereo not shown) [Example 27.3, 8-(6-Amino-5-trifluoromethyl-pyridin-3-yl)-1-[6-(3-hydroxy-pyrrolidin-1-yl)-2-methyl-pyridin-3-yl]-3-methyl-1,3-dihydro-imidazo[4,5-c]quinolin-2-one]
2 | 287 | CCNc1cc(-c2ccc3ncc4c(c3c2)n(-c2ccc(N(C)CCO)nc2C)c(=O)n4C)cnc1CO [Example 26.3, 8-(5-Ethylamino-6-hydroxymethyl-pyridin-3-yl)-1-{6-[(2-hydroxy-ethyl)-methyl-amino]-2-methyl-pyridin-3-yl}-3-methyl-1,3-dihydro-imidazo[4,5-c]quinolin-2-one]
3 | 148 | Cc1nc(F)ccc1-n1c(=O)n(C)c2cnc3ccc(-c4cncc(N5CCC5)c4)cc3c21 [Example 7.6, 8-(5-Azetidin-1-yl-pyridin-3-yl)-1-(6-fluoro-2-methyl-pyridin-3-yl)-3-methyl-1,3-dihydro-imidazo[4,5-c]quinolin-2-one]
4 | 186 | COc1cc(-c2ccc3ncc4c(c3c2)n(-c2ccc(F)nc2C)c(=O)n4C)cnc1CO [Example 7.10, 1-(6-Fluoro-2-methyl-pyridin-3-yl)-8-(6-hydroxymethyl-5-methoxy-pyridin-3-yl)-3-methyl-1,3-dihydro-imidazo[4,5-c]quinolin-2-one]
5 | 193 | CCOc1ccc(-c2ccc3ncc4c(c3c2)n(-c2ccc(N3CCC(O)C3)nc2C)c(=O)n4C)cn1 (stereo not shown) [Example 27.4, 8-(6-Ethoxy-pyridin-3-yl)-1-[6-(3-hydroxy-pyrrolidin-1-yl)-2-methyl-pyridin-3-yl]-3-methyl-1,3-dihydro-imidazo[4,5-c]quinolin-2-one]
6 | 19 | Cc1nc(N2CC(O)C2)ccc1-n1c(=O)n(C)c2cnc3ccc(-c4cncc(C(C)(C)O)c4)cc3c21 [Example 29.1, 1-[6-(3-Hydroxy-azetidin-1-yl)-2-methyl-pyridin-3-yl]-8-[5-(1-hydroxy-1-methyl-ethyl)-pyridin-3-yl]-3-methyl-1,3-dihydro-imidazo[4,5-c]quinolin-2-one]
7 | 167 | COc1ccc(-n2c(=O)n(C)c3cnc4ccc(-c5cnc(C(OC)OC)c(OC)c5)cc4c32)c(OC)n1 [Example 8.13, 8-(6-Dimethoxymethyl-5-methoxy-pyridin-3-yl)-1-(2,6-dimethoxy-pyridin-3-yl)-3-methyl-1,3-dihydro-imidazo[4,5-c]quinolin-2-one]
8 | 79 | COCc1ncc(-c2ccc3ncc4c(c3c2)n(-c2ccc(F)nc2C)c(=O)n4C)cc1OC [Example 7.7, 1-(6-Fluoro-2-methyl-pyridin-3-yl)-8-(5-methoxy-6-methoxymethyl-pyridin-3-yl)-3-methyl-1,3-dihydro-imidazo[4,5-c]quinolin-2-one]
9 | 35 | COc1cc(-c2ccc3ncc4c(c3c2)n(-c2ccc(N3CC[C@H](O)C3)nc2C)c(=O)n4C)cnc1CO [Example 32.7, 8-(6-Hydroxymethyl-5-methoxy-pyridin-3-yl)-1-[6-((S)-3-hydroxy-pyrrolidin-1-yl)-2-methyl-pyridin-3-yl]-3-methyl-1,3-dihydro-imidazo[4,5-c]quinolin-2-one]
10 | 126 | COc1ccc(-n2c(=O)n(C)c3cnc4ccc(-c5cncc(N6CCC6)c5)cc4c32)c(OC)n1 [Example 8.11, 8-(5-Azetidin-1-yl-pyridin-3-yl)-1-(2,6-dimethoxy-pyridin-3-yl)-3-methyl-1,3-dihydro-imidazo[4,5-c]quinolin-2-one]
11 | 118 | COc1cc(-c2ccc3ncc4c(c3c2)n(-c2ccc(N)nc2C)c(=O)n4C)cnc1CO [Example 30.1, 1-(6-Amino-2-methyl-pyridin-3-yl)-8-(6-hydroxymethyl-5-methoxy-pyridin-3-yl)-3-methyl-1,3-dihydro-imidazo[4,5-c]quinolin-2-one]
12 | 53 | COCc1ncc(-c2ccc3ncc4c(c3c2)n(-c2cccnc2C)c(=O)n4C)cc1OC [Example 2.30, 8-(5-Methoxy-6-methoxymethyl-pyridin-3-yl)-3-methyl-1-(2-methyl-pyridin-3-yl)-1,3-dihydro-imidazo[4,5-c]quinolin-2-one]
13 | 42 | CNc1ncc(-c2ccc3ncc4c(c3c2)n(-c2ccc(N3CC[C@@H](O)C3)nc2C)c(=O)n4C)cn1 [Example 34.1, 1-[6-((R)-3-Hydroxy-pyrrolidin-1-yl)-2-methyl-pyridin-3-yl]-3-methyl-8-(2-methylamino-pyrimidin-5-yl)-1,3-dihydro-imidazo[4,5-c]quinolin-2-one]
14 | 311 | COc1ccc(-n2c(=O)n(C)c3cnc4ccc(-c5cnc(CO)c(OC)c5)cc4c32)c(OC)n1 [Example 8.14, 1-(2,6-Dimethoxy-pyridin-3-yl)-8-(6-hydroxymethyl-5-methoxy-pyridin-3-yl)-3-methyl-1,3-dihydro-imidazo[4,5-c]quinolin-2-one]
15 | 248 | COc1cc(-c2ccc3ncc4c(c3c2)n(-c2ccc(N3CC(F)(F)C3)nc2C)c(=O)n4C)cnc1CO [Example 24.4, 1-[6-(3,3-Difluoro-azetidin-1-yl)-2-methyl-pyridin-3-yl]-8-(6-hydroxymethyl-5-methoxy-pyridin-3-yl)-3-methyl-1,3-dihydro-imidazo[4,5-c]quinolin-2-one]
16 | 42 | COc1cc(-c2ccc3ncc4c(c3c2)n(-c2ccc(N3CCC(OC)C3)nc2C)c(=O)n4C)cnc1CO (stereo not shown) [Example 28.3, 8-(6-Hydroxymethyl-5-methoxy-pyridin-3-yl)-1-[6-(3-methoxy-pyrrolidin-1-yl)-2-methyl-pyridin-3-yl]-3-methyl-1,3-dihydro-imidazo[4,5-c]quinolin-2-one]
17 | 272 | COc1cc(-c2ccc3ncc4c(c3c2)n(-c2ccc(N3CCCC3)nc2C)c(=O)n4C)cnc1CO [Example 25.4, 8-(6-Hydroxymethyl-5-methoxy-pyridin-3-yl)-3-methyl-1-(2-methyl-6-pyrrolidin-1-yl-pyridin-3-yl)-1,3-dihydro-imidazo[4,5-c]quinolin-2-one]
18 | 5 | CNc1ncc(-c2ccc3ncc4c(c3c2)n(-c2ccc(N3CC[C@H](O)C3)nc2C)c(=O)n4C)cc1Cl [Example 32.4, 8-(5-Chloro-6-methylamino-pyridin-3-yl)-1-[6-((S)-3-hydroxy-pyrrolidin-1-yl)-2-methyl-pyridin-3-yl]-3-methyl-1,3-dihydro-imidazo[4,5-c]quinolin-2-one]
19 | 10 | CCNc1cc(-c2ccc3ncc4c(c3c2)n(-c2ccc(N3CC(F)(F)C(F)(F)C3)nc2C)c(=O)n4C)cnc1CO [Example 35.2, 8-(5-Ethylamino-6-hydroxymethyl-pyridin-3-yl)-3-methyl-1-[2-methyl-6-(3,3,4,4-tetrafluoro-pyrrolidin-1-yl)-pyridin-3-yl]-1,3-dihydro-imidazo[4,5-c]quinolin-2-one]
20 | 148 | Cc1nc(N2CCC(O)C2)ccc1-n1c(=O)n(C)c2cnc3ccc(-c4cncc(C(C)(C)O)c4)cc3c21 (stereo not shown) [Example 27.5, 8-[5-(1-Hydroxy-1-methyl-ethyl)-pyridin-3-yl]-1-[6-(3-hydroxy-pyrrolidin-1-yl)-2-methyl-pyridin-3-yl]-3-methyl-1,3-dihydro-imidazo[4,5-c]quinolin-2-one]
21 | 33 | CCNc1cc(-c2ccc3ncc4c(c3c2)n(-c2ccc(N3CCCC3)nc2C)c(=O)n4C)cnc1CO [Example 25.5, 8-(5-Ethylamino-6-hydroxymethyl-pyridin-3-yl)-3-methyl-1-(2-methyl-6-pyrrolidin-1-yl-pyridin-3-yl)-1,3-dihydro-imidazo[4,5-c]quinolin-2-one]
22 | 159 | CNc1ncc(-c2ccc3ncc4c(c3c2)n(-c2ccc(N3CCC(OC)C3)nc2C)c(=O)n4C)cn1 (stereo not shown) [Example 28.2, 1-[6-(3-Methoxy-pyrrolidin-1-yl)-2-methyl-pyridin-3-yl]-3-methyl-8-(2-methylamino-pyrimidin-5-yl)-1,3-dihydro-imidazo[4,5-c]quinolin-2-one]

same assay, conditions: read-out: PI3Kdelta/IC50

Row | IC50 [nM] | SMILES
23 | 221 | CNC(=O)c1ccc(-c2ccc3ncc4c(c3c2)n(-c2cccnc2C)c(=O)n4C)cc1 [Example 2.4, N-Methyl-4-[3-methyl-1-(2-methyl-pyridin-3-yl)-2-oxo-2,3-dihydro-1H-imidazo[4,5-c]quinolin-8-yl]-benzamide]
24 | 35 | Cc1ncccc1-n1c(=O)n(C)c2cnc3ccc(-c4cnc5[nH]ccc5c4)cc3c21 [Example 2.8, 3-Methyl-1-(2-methyl-pyridin-3-yl)-8-(1H-pyrrolo[2,3-b]pyridin-5-yl)-1,3-dihydro-imidazo[4,5-c]quinolin-2-one]
25 | 78 | Cn1c(=O)n(-c2cccnc2F)c2c3cc(-c4cnc5[nH]ccc5c4)ccc3ncc21 [Example 6.3, 1-(2-Fluoro-pyridin-3-yl)-3-methyl-8-(1H-pyrrolo[2,3-b]pyridin-5-yl)-1,3-dihydro-imidazo[4,5-c]quinolin-2-one]
